Experiment [1] in a line: Antibiotics-Microbial assay, USP <81>. The experiment is classed as cell-based. Conditions: final product of the 2 kg scale cGMP process (GMP DS Lot 1); specification ≥900 IU/mg. The text has this: Materials and Methods. […] Identification by IR spectrum, USP <197K> • 2. Antibiotics-Microbial assay, USP <81>
The subject of experiment [2] is ovarian cancer cell line SKOV3. As to the kind of experiment: cell viability assay, crystal violet cell staining. The experiment is classed as cell-based. As to conditions: 48 hours treatment. The method, then: Commercial thiostrepton (TS) starting material (TS Non-GMP) and ultrapure TS (TS GMP) were diluted to 10 mM in sterile DMSO. Lots of TS were evaluated in a cell viability assay using the ovarian cancer cell line SKOV3 purchased from ATCC. Two replicate plates containing technical duplicates were set up for screening. Cells were plated at a density of 2,500 cells/well in 96-well plates and allowed to adhere for 24 hours prior to treatment. A starting concentration of 20 μM for each TS solution was serial diluted 1:1 covering a concentration range of 20 μM to 20 nM. Cells were incubated with treatments for 48 hours prior to fixation with 3% formaldehyde and crystal violet cell staining to determine residual cells remaining (100%=no cell death, 0%=complete cell death). FIG. 4. EC50 values (the concentration required to kill 50% of cells) were determined using a variable slope least square fit non-linear regression. FIG. 5.

Molecule `C=C(NC(=O)C(=C)NC(=O)c1csc(C2=N[C@@H]3c4csc(n4)[C@H]4NC(=O)c5csc(n5)[C@H]([C@](C)(O)[C@@H](C)O)NC(=O)[C@H]5CSC(=N5)/C(=C/C)NC(=O)[C@H]([C@@H](C)O)NC(=O)c5csc(n5)[C@]3(CC2)NC(=O)[C@H](C)NC(=O)C(=C)NC(=O)[C@H](C)NC(=O)[C@H]([C@@H](C)CC)N[C@@H]2C=Cc3c([C@H](C)O)cc(nc3[C@H]2O)C(=O)O[C@@H]4C)n1)C(N)=O` [ultrapure TS, thiostrepton] gave an Antibiotics-Microbial assay in experiment [1] of 988 IU/mg. In addition, the “biological activity as measured by % cell death of cancer cells, compared with commercial TS” value in experiment [2] (20 μM to 20 nM, N=4 replicates (FIG. 4)) is “better biological activity”. In experiment [2] (variable slope non-linear regression, N=4 replicates, p<0.0001 (FIG. 5)), the “biological activity as measured by EC50 (the concentration required to kill 50% of cells), compared with commercial TS” value is on record as “better biological activity”.

The values are drawn from US20250282816A1, “THIOSTREPTON COMPOSITIONS AND PREPARATION THEREOF” (RS Oncology, LLC, priority 2021, published 2025).
